Drawing on patent US11246929B2, “Combination of a protein kinase inhibitor and an additional chemotherapeutic agent” (Merck Patent GmbH, priority 2016, dated 2022), this text covers GI50 for one compound.

Broadly, the GI50 is the concentration that inhibits growth by half.

Holding throughout (experiment): SRB growth inhibition, 93 cell lines panel
Holding throughout (assay type): cell-based

Experiment [1] relates to 22RV1. Conditions: Homo sapiens; 22RV1, prostate; read-out: GI50 of etoposide (±Compound 1). Here is the method:
(§1) 90 μl of cells, after a 48-hour pre-growth period, were treated by mixing with 10 μl of the compound-containing media (resulting in a final DMSO concentration of 0.1%).
(§2) This is the drug concentration causing a 50% reduction compared to the net protein increase in control cells during the drug incubation period. In other words, G150 is IC50 corrected for time zero. […] TGI was calculated from Ti=Tz. […] It was calculated as 100×[(Ti−Tz)/Tz]=−50.

The subject of experiment [2] is 5637. Conditions: 5637, bladder; read-out: GI50 of etoposide (±Compound 1). How it is done:
as §1, §2

The subject of experiment [3] is A431. As to conditions: Homo sapiens, A-431; A431, skin; read-out: GI50 of etoposide (±Compound 1). How it is done: as §1, §2
The test system of experiment [4] is C33A. Conditions: Homo sapiens, C-33-A, cervix, read-out: GI50 of etoposide (±Compound 1). Here is the method: as §1, §2
Experiment [5] relates to CAKI1. Conditions: Homo sapiens, CAKI-1; CAKI1, kidney; read-out: GI50 of etoposide (±Compound 1). How it is done:
as §1, §2

Experiment [6] concerns GRANTA-519. Conditions: Homo sapiens; GRANTA-519, hematological; read-out: GI50 of etoposide (±Compound 1). Here is the method: as §1, §2
In experiment [7] the test system is HL-60. As to conditions: Homo sapiens; HL-60, hematological; read-out: GI50 of etoposide (±Compound 1). How it is done:
as §1, §2

In experiment [8] the test system is HS729. Conditions: HS729, muscle; read-out: GI50 of etoposide (±Compound 1). Here is the method:
as §1, §2

The test system of experiment [9] is HT1080. Conditions: Homo sapiens, HT-1080; HT1080, connective tissue; read-out: GI50 of etoposide (±Compound 1). How it is done:
as §1, §2

For experiment [10], the system named is HT29. As to conditions: Homo sapiens, HT-29; HT29, colon; read-out: GI50 of etoposide (±Compound 1). Here is the method:
as §1, §2

The test system of experiment [11] is J82. As to conditions: Homo sapiens; J82, bladder; read-out: GI50 of etoposide (±Compound 1). Here is the method:
as §1, §2

Experiment [12] has as its system JIMT1. Conditions: Homo sapiens, JIMT-1; JIMT1, breast; read-out: GI50 of etoposide (±Compound 1). Here is the method: as §1, §2
Experiment [13] concerns MCF7. As to conditions: Homo sapiens; MCF7, breast; read-out: GI50 of etoposide (±Compound 1). How it is done: as §1, §2
Experiment [14] relates to MDAMB231. Conditions: Homo sapiens, MDA-MB-231; MDAMB231, breast; read-out: GI50 of etoposide (±Compound 1). Here is the method:
as §1, §2

Experiment [15] concerns MHHES1. As to conditions: Homo sapiens, MHH-ES-1; MHHES1, bone; read-out: GI50 of etoposide (±Compound 1). How it is done: as §1, §2
Experiment [16] concerns MIAPACA2. Conditions: Homo sapiens, MIA PaCa-2; MIAPACA2, pancreas; read-out: GI50 of etoposide (±Compound 1). Here is the method:
as §1, §2

Experiment [17] has as its system NCIH292. Conditions: Homo sapiens, NCI-H292; NCIH292, lung; read-out: GI50 of etoposide (±Compound 1). How it is done:
as §1, §2

The test system of experiment [18] is NCIH358M. Conditions: NCI-H358M, lung, read-out: GI50 of etoposide (±Compound 1). How it is done: as §1, §2
In experiment [19] the test system is NCIH82. Conditions: Homo sapiens, NCI-H82; NCIH82, lung; read-out: GI50 of etoposide (±Compound 1). Here is the method: as §1, §2
Experiment [20] deals with OVCAR4. As to conditions: Homo sapiens, OVCAR-4; OVCAR4, ovary; read-out: GI50 of etoposide (±Compound 1). Here is the method:
as §1, §2

Experiment [21] concerns PANC1. As to conditions: Homo sapiens, PANC-1; PANC1, pancreas; read-out: GI50 of etoposide (±Compound 1). Here is the method: as §1, §2
Experiment [22] relates to SKMEL28. Conditions: Homo sapiens, SK-MEL-28; SKMEL28, skin; read-out: GI50 of etoposide (±Compound 1). How it is done: as §1, §2
The test system of experiment [23] is THP-1. Conditions: Homo sapiens; THP-1, hematological; read-out: GI50 of etoposide (±Compound 1). How it is done:
as §1, §2

As for `COc1cc([C@@H]2c3cc4c(cc3[C@@H](O[C@@H]3O[C@@H]5CO[C@@H](C)O[C@H]5[C@H](O)[C@H]3O)[C@H]3COC(=O)[C@H]23)OCO4)cc(OC)c1O` [Etoposide], the GI50 in experiment [1] is 234 nM; in experiment [2] it was 685 nM; in [3] it was 1520 nM; in experiment [4], 393 nM; in [5], 520 nM; in experiment [6], 247 nM. In addition, the GI50 in experiment [7] is 120 nM; in experiment [8], 730 nM; in experiment [9] it was 96 nM; in experiment [10] it was 2220 nM; in experiment [11], 7.93 µM; in experiment [12], 17.7 µM. Besides, the GI50 in experiment [13] was determined as 1290 nM; in [14], 1940 nM; in experiment [15], 227 nM; in experiment [16], 689 nM; in experiment [17], 1650 nM; in [18], 3.33 µM. In addition, the GI50 in experiment [19] is 1150 nM; in [20] it was greater than 10 µM; in experiment [21] it was 1920 nM; in experiment [22], 1890 nM; in experiment [23] it was 110 nM.
